# Assays:
# [1] = system: human breast cancer HER2 IHC 3+ PDX model; experiment: In vivo efficacy of GQ01 with TKIs in human breast cancer PDX model (Example 1); set-up: species or system NOD SCID mice; conditions: GQ01 5 mg/kg Q3W×2, combination 5 + 20 mg/kg; for TGI (%): day 77; for Tumor volume (mm^3), Mean ± SEM: end day (day 77)
# Description: I. The tumor tissues of PDX model were extracted from the tumor-bearing mice and then transferred to culture medium, cut into small fragments, and inoculated subcutaneously at the right flank of SPF female NOD SCID mice aged 6~8 weeks.
# II. The tumor diameter was measured with a caliper and the tumor volume was calculated according to the formula V=0.5 a×b^2 (wherein a is the long diameter of the tumor and b is the short diameter of the tumor). […] The tumor volume of mice in each group was measured twice a week.
# [2] = system: human breast cancer HER2 IHC 3+ PDX model (acquired resistance to trastuzumab and pertuzumab, primary resistance to pyrotinib); experiment: In vivo efficacy of GQ01 with TKIs in human breast cancer PDX model resistant to trastuzumab, pertuzumab and pyrotinib (Example 3); set-up: species or system NCG mice; conditions: for TGI (%): day 42; for TGI (%) / Tumor volume (mm^3), Mean ± SEM: GQ01 3 mg/kg on day 0 and 5 mg/kg on day 21; for Tumor volume (mm^3), Mean ± SEM: end day (day 42)
# Description: This model was derived from a patient with Stage III invasive breast cancer, who was assessed as acquired drug resistance to trastuzumab and pertuzumab and primary resistance to pyrotinib based on the history of treatments.
# I. The tumor tissues of PDX model were extracted from the tumor-bearing mice and were transferred to culture medium, cut into small fragments, and then inoculated subcutaneously in the right flank of SPF female NCG mice aged 6~8 weeks.
# (§1) II. 29 days after inoculation, the tumor diameter was measured with a caliper and the tumor volume was calculated according to the formula V=0.5 a×b2 (wherein a is the long diameter of the tumor and b is the short diameter of the tumor). […] Each group included 6 mice. The day of first administration was defined as day 0. […] The tumor volume of mice in each group was measured twice a week.
# [3] = system: gastric cancer HER2 IHC 3+ PDX model; experiment: In vivo efficacy of GQ01 with TKIs in human gastric cancer PDX model (Example 4); set-up: species or system Nu/Nu mice; conditions: for TGI (%): day 35; for TGI (%) / Tumor volume (mm^3), Mean ± SEM: GQ01 10 mg/kg single dose; for Tumor volume (mm^3), Mean ± SEM: end day (day 35); for PD (response status, share of animals): 6 mice per group, GQ01 10 mg/kg
# Description: I. The tumor tissues of PDX model were extracted from the tumor-bearing mice and were transferred to RPMI-1640 culture medium, cut into small fragments, and then inoculated subcutaneously in the right flank of SPF female Nu/Nu mice aged 6~8 weeks.
# as §1, with “14” for “29”
# The response status were calculated based on the diameters or disappearance of target lesions.
# [4] = system: breast cancer HER2 IHC 3+ PDX model (primary resistance to palbociclib); experiment: In vivo efficacy of GQ01 with TKIs in human breast cancer PDX model, primary resistance to palbociclib (Example 2); set-up: species or system NCG mice; conditions: GQ01 5 mg/kg on day 0 and day 28; for TGI (%): day 49; for Tumor volume (mm^3), Mean ± SEM: end day (day 49)
# Description: The model was derived from a patient with Stage III invasive breast cancer who developed metastases to lung and bone after surgery.
# I. The tumor tissues of PDX model were extracted from the tumor-bearing mice and were transferred to culture medium, cut into small fragments, and inoculated subcutaneously in the right flank of SPF female NCG mice aged 6~8 weeks.
# as §1, with “30” for “29”, “a×b^2” for “a×b2”, “mice” for “mice in each group”
# [5] = neratinib 20 mg/kg QD×2W+QD×2W, listed as neratinib
# [6] = pyrotinib 20 mg/kg QD day 0-13, 21-34, combination 3/5 + 20 mg/kg
# [7] = pyrotinib 20 mg/kg QD day 0-13, 21-34, combination 3/5 + 20 mg/kg, listed as pyrotinib
# [8] = pyrotinib 20 mg/kg QD×2W+QD×2W, listed as pyrotinib
# [9] = pyrotinib 20 mg/kg QD 2 weeks, combination 10 + 20 mg/kg
# [10] = pyrotinib 20 mg/kg QD 2 weeks, combination 10 + 20 mg/kg, listed as pyrotinib
# [11] = pyrotinib 20 mg/kg QD day 0-13, 28-41, combination 5 + 20 mg/kg
# [12] = pyrotinib 20 mg/kg QD day 0-13, 28-41, combination 5 + 20 mg/kg, listed as pyrotinib
# [13] = tucatinib 50 mg/kg QD day 0-13, 21-34, combination 3/5 + 50 mg/kg
# [14] = tucatinib 50 mg/kg QD day 0-13, 21-34, combination 3/5 + 50 mg/kg, listed as tucatinib
# [15] = tucatinib 20 mg/kg BID×2W+BID×2W
# [16] = tucatinib 20 mg/kg BID×2W+BID×2W, listed as tucatinib
# [17] = tucatinib 50 mg/kg QD 2 weeks, combination 10 + 50 mg/kg
# [18] = tucatinib 50 mg/kg QD 2 weeks, combination 10 + 50 mg/kg, listed as tucatinib
# [19] = tucatinib 50 mg/kg QD day 0-13, 28-41, combination 5 + 50 mg/kg
# [20] = tucatinib 50 mg/kg QD day 0-13, 28-41, combination 5 + 50 mg/kg, listed as tucatinib
compound,measurement,setting,value
"CCOc1cc2ncc(C#N)c(Nc3ccc(OCc4ccccn4)c(Cl)c3)c2cc1NC(=O)/C=C/CN(C)C [Neratinib, neratinib]",TGI (%),[1]; neratinib 20 mg/kg QD×2W+QD×2W,61.80%
same,TGI (%),[1]; [5],61.80%
same,"Tumor volume (mm^3), Mean ± SEM",[1]; neratinib 20 mg/kg QD×2W+QD×2W,724 ± 114 mm^3
same,"Tumor volume (mm^3), Mean ± SEM",[1]; [5],724 mm^3
"CCOc1cc2ncc(C#N)c(Nc3ccc(OCc4ccccn4)c(Cl)c3)c2cc1NC(=O)/C=C/[C@H]1CCCN1C [Pyrotinib, pyrotinib]",TGI (%),[2]; [6],10.08%
same,TGI (%),[2]; [7],10.08%
same,"Tumor volume (mm^3), Mean ± SEM",[2]; [6],1333.21 ± 217.85 mm^3
same,"Tumor volume (mm^3), Mean ± SEM",[2]; [7],1333 mm^3
same,TGI (%),[1]; pyrotinib 20 mg/kg QD×2W+QD×2W,34.93%
same,TGI (%),[1]; [8],34.93%
same,"Tumor volume (mm^3), Mean ± SEM",[1]; pyrotinib 20 mg/kg QD×2W+QD×2W,1108 ± 202 mm^3
same,"Tumor volume (mm^3), Mean ± SEM",[1]; [8],1108 mm^3
same,TGI (%),[3]; [9],83.09%
same,TGI (%),[3]; [10],83.09%
same,"Tumor volume (mm^3), Mean ± SEM",[3]; [9],233.72 ± 39.7 mm^3
same,"Tumor volume (mm^3), Mean ± SEM",[3]; [10],234 mm^3
same,"PD (response status, share of animals)","[3]; pyrotinib arm table, pyrotinib 20 mg/kg, dash = no animal in this class",83.33%
same,TGI (%),[4]; [11],−2.65%
same,TGI (%),[4]; [12],−2.65%
same,"Tumor volume (mm^3), Mean ± SEM",[4]; [11],740.71 ± 146.76 mm^3
same,"Tumor volume (mm^3), Mean ± SEM",[4]; [12],741 mm^3
"Cc1cc(Nc2ncnc3ccc(NC4=NC(C)(C)CO4)cc23)ccc1Oc1ccn2ncnc2c1 [Tucatinib, tucatinib]",TGI (%),[2]; [13],−6.46%
same,TGI (%),[2]; [14],−6.46%
same,"Tumor volume (mm^3), Mean ± SEM",[2]; [13],1557.77 ± 178.71 mm^3
same,"Tumor volume (mm^3), Mean ± SEM",[2]; [14],1558 mm^3
same,"response of the model to treatment, in words","[2]; tucatinib 50 mg/kg QD day 0-13, 21-34",doesn't respond
same,TGI (%),[1]; [15],51.08%
same,TGI (%),[1]; [16],51.08%
same,"Tumor volume (mm^3), Mean ± SEM",[1]; [15],879 ± 216 mm^3
same,"Tumor volume (mm^3), Mean ± SEM",[1]; [16],879 mm^3
same,TGI (%),[3]; [17],48.94%
same,TGI (%),[3]; [18],48.94%
same,"Tumor volume (mm^3), Mean ± SEM",[3]; [17],399.97 ± 43.87 mm^3
same,"Tumor volume (mm^3), Mean ± SEM",[3]; [18],400 mm^3
same,"PD (response status, share of animals)","[3]; tucatinib arm table, tucatinib 50 mg/kg",100%
same,TGI (%),[4]; [19],−1.09%
same,TGI (%),[4]; [20],−1.09%
same,"Tumor volume (mm^3), Mean ± SEM",[4]; [19],732.33 ± 137.71 mm^3
same,"Tumor volume (mm^3), Mean ± SEM",[4]; [20],732 mm^3

# Reference: patent US20260263624A1, “COMBINATION OF ANTIBODY-DRUG CONJUGATE AND CANCER THERAPY, AND USE THEREOF” (GENEQUANTUM HEALTHCARE (SUZHOU) CO., LTD., priority 2023, published 2026)
